Where a SMILES comes first, the peptide text is derived from it.
Key:
eNOS = settings: goat milk-derived ACE-inhibitory peptide; ref [39]; cited from earlier work
Protocol: Consequently, peptides SLPQ or PYVRYL were supplemented at concentrations ranging from 0 to 200 μg/mL in the following study. The bradykinin–NO signaling pathway can be activated by […] [44], and NO plays an important role in regulating blood pressure and the tension of vascular smooth muscle. Therefore, the content of NO in the ...

EA.hy926 cells = test: MTT cell viability; assay type: cell-based; settings: 12 or 24 h; for viability of EA.hy926 cells: concentration lower than 200 μg/mL
Protocol: The cells were cultured in DMEM with 100 units/mL streptomycin–penicillin plus 2% FBS under an atmosphere of 5% CO2, 37 °C, and 100% humidity. The cells were seeded in 96-well plates at a density of 1 × 10^5 cells/well, and then treated with different concentrations of SLPQ (0, 12.5, 25, 50, 100, 200, 400, 800 μg/mL) or PYVRYL (0, 25, 50, 100, 200, 400, 800 μg/mL) for 12 or 24 h. After that, 0.05 mg/mL of MTT was added to each well and the plate was incubated for four hours at 37 °C. Finally, the culture media were replaced with 150 μL DMSO, and the OD value was detected at a wavelength of 570 nm (Infinity F200 microplate reader, Mainz, Germany).

| Compound | NO production and eNOS expression (eNOS) | toxic effects on EA.hy926 cells (EA.hy926 cells; 400 μg/mL) | toxic effects on EA.hy926 cells (EA.hy926 cells; 800 μg/mL) | viability of EA.hy926 cells (EA.hy926 cells) |
| --- | --- | --- | --- | --- |
| SQPK | elevate NO production and eNOS expression | – | – | – |
| CC(C)C[C@H](NC(=O)[C@@H](N)CO)C(=O)N1CCC[C@H]1C(=O)N[C@@H](CCC(N)=O)C(=O)O [SLPQ] (H-SLPQ-OH) | – | obvious toxic effects | obvious toxic effects | not affected |
| CC(C)C[C@H](NC(=O)[C@H](Cc1ccc(O)cc1)NC(=O)[C@H](CCCNC(=N)N)NC(=O)[C@@H](NC(=O)[C@H](Cc1ccc(O)cc1)NC(=O)[C@@H]1CCCN1)C(C)C)C(=O)O [PYVRYL] (H-PYVRYL-OH) | – | obvious toxic effects | obvious toxic effects | not affected |
